We go through four compounds from publication PMC12735872, “Development of ^18F/^11C-Labeled Pyrrolo-Pyridine/Pyrimidine LRRK2 Selective PET Radioligands” (Pharmaceuticals, 2025).

Data set [1] relates to MDR1 (P-gp). Briefly: MDR1-MDCK permeability and efflux ratio. The class given is in vitro ADME. Conditions: dog, assay described in ref. 17. The text has this: Table 1 LRRK2 wild-type (WT) and G2019S Lanthascreen, MDR1-MDCK permeability (Papp A:B), and efflux ratio (B:A/A:B), free fractions in plasma (fp) and brain homogenate (fb) and PET Multi-Parameter Optimization (MPO) score of Compounds 1, 2, and 3. | column: Papp A:B ^2 (MDR1-MDCK) (cm/s × 10^−6); B:A/A:B ^2

Data set [2] addresses LRRK2 wild-type (WT) (Homo sapiens, UniProt Q5S007). Briefly: LRRK2 wild-type Lanthascreen. The class given is biochemical. Conditions: assay described in ref. 16; read-out: LRRK2 Lanthascreen WT cKi. On the technique in general: In TR-FRET formats the signal depends on donor and acceptor labels being close together.
A short description of data set [3]: Free fraction in plasma (fp). Format: in vitro ADME. Conditions: method ref. 18. The text has this: Table 1 LRRK2 wild-type (WT) and G2019S Lanthascreen, MDR1-MDCK permeability (Papp A:B), and efflux ratio (B:A/A:B), free fractions in plasma (fp) and brain homogenate (fb) and PET Multi-Parameter Optimization (MPO) score of Compounds 1, 2, and 3. | column: fp ^3 (%)

The nature of data set [4]: Free fraction in brain homogenate (fb). Conditions: method ref. 18. Format: in vitro ADME. From the text:
Table 1 LRRK2 wild-type (WT) and G2019S Lanthascreen, MDR1-MDCK permeability (Papp A:B), and efflux ratio (B:A/A:B), free fractions in plasma (fp) and brain homogenate (fb) and PET Multi-Parameter Optimization (MPO) score of Compounds 1, 2, and 3. | column: fb ^3 (%)

The target of data set [5] is LRRK2 G2019S (Homo sapiens, UniProt Q5S007, G2019S). In words: LRRK2 G2019S Lanthascreen. The class given is biochemical. Conditions: assay described in ref. 16; read-out: LRRK2 Lanthascreen G2019S cKi.
Data set [6] has as its system cynomolgus monkey brain. In words: In vivo PET imaging in cynomolgus monkeys. Particulars: for Blocking effect on [^18F]1 brain binding in vivo: pretreatment 30 min before [^18F]1, GNE-7915 40 mg/kg, PFE-360 0.5 mg/kg iv. From the text: PET measurements were led using a high-resolution research tomograph (HRRT) from Siemens Molecular Imaging (Knoxville, TN, USA). List mode data were reconstructed using the ordinary Poisson-3D-ordered subset expectation maximization (OP-3D-OSEM) algorithm, with 10 repetitions and 16 subsets while modeling the point spread function (PSF). The in-plane resolution accomplished with OP-3D-OSEM and PSF was 1.5 mm full width at half maximum (FWHM) at the center of the field of view (FOV) and 2.4 mm at 10 cm off-center.
The study was approved by the Animal Ethics Committee of the Swedish Animal Welfare Agency and was performed according to “Guidelines for planning, conducting and documenting experimental research” (Dnr 5.2.18-4170/14 issued on 11 April 2014) of the KI as well as the “Guide for the Care and Use of Laboratory Animals” [26]. NHPs were supplied by the Astrid Fagraeus Laboratory (AFL) of the Swedish Institute for Infectious Disease Control (SMI), Solna, Sweden. Anesthesia was brought by intramuscular injection of ketamine hydrochloride (approximately 10 mg/kg) at AFL and continued with a mixture of sevoflurane (0–8.0%), oxygen, and medical air through endotracheal intubation at the KI PET center. The NHP head was immobilized using a homemade fixation device. Body temperature was maintained with a Bair Hugger model 505 (Arizant Healthcare, Eden Prairie, MN, USA) and monitored via an esophageal thermometer. ECG, heart rate, respiratory rate, blood pressure, and oxygen saturation were continuously examined throughout the experiments. The fluid balance was retained with continuous infusion of saline.
A 6 min transmission scan was performed before the injection of the radioligand using a single Cs-137 source. List mode data was acquired continuously for 93 min following intravenous administration of the radioligand. Images were reconstructed into 38 frames with varying intervals: […].
For all PET measurements, radioligands were administered via intravenous injection. Regions of interest (ROIs) were manually delineated on MRI images for each NHP, for the whole brain, cerebellum, caudate, putamen, thalamus, frontal cortex, temporal cortex, amygdala, posterior cingulate cortex, anterior cingulate cortex, hippocampus, occipital cortex, parietal cortex, ventral striatum, and insula. The summed PET images over the entire duration were co-registered with the individual NHP’s MRI image. After applying the co-registration parameters to the dynamic PET data, time–activity curves were generated for each brain region for every PET measurement. The standardized uptake value (SUV) was calculated for each brain region. The total distribution volume (VT) for all three radioligands were derived using one-tissue compartment (1-TC) and two-tissue compartment (2-TC) models.
On two separate occasions, PET measurements were performed after intravenous administration of GEN-7915 or PFE-360 with a slow infusion in one NHP (NHP2). The infusion lasted for 2 min, starting 30 min before PET scanning. The pretreatment formulations were prepared by dissolving it in DMSO (5%), Kolliphor EL (15%), and PBS (80%), and the pH of the final formulation was approximately 4.5–5.0. An automated blood sampling system (ABSS) measured continuous radioactivity for the first 3 min following the radioligand injection, while manual blood samples were taken at 4, 15, 30, 60, and 90 min post-injection to measure the radioactivity and metabolism.

The target in data set [7] is T1, LRRK2 (Homo sapiens, UniProt Q5S007).
T1 construct: Human brains without pathological findings were acquired from the National Institute of Forensic Medicine; from tissue; host or cells: human post-mortem control brain, whole-hemisphere sections (100 µm)
In words: In vitro autoradiography, human whole-hemisphere brain slices. The class given is binding. The method, then:
Human brains without pathological findings were acquired from the National Institute of Forensic Medicine at Karolinska Institutet in Stockholm, Sweden. These brains were obtained during forensic autopsies (designated as control brain) and were processed in a manner like previously described methods. […] The brain was removed, and its tissues were kept in −85 °C until the sectioning process. The whole brain hemispheric slices were subsequently maintained at −25 °C until the commencement of autoradiography procedures. […] The sectioning of the brain and the autoradiography experiments were performed at the Psychiatry section, Department of Neuroscience, Karolinska Institutet, Sweden.
Whole brain hemispheres were sectioned into horizontal slices with a thickness of 100 µm using a Leica cryomacrocut system. The autoradiographic procedures followed the same protocols established in previous studies conducted in our laboratory. The whole-hemisphere sections of 100 micron thickness were incubated for 90 min at room temperature with their corresponding radiotracer (4 MBq/200 mL) in TRIS buffer (pH 7.4) containing sodium chloride (120 mM), potassium chloride (5 mM), calcium chloride (2 mM), and albumin (0.1% w/v). After incubation, sections were washed three times in the same buffer at room temperature for five minutes each, briefly dipped in ice-cold distilled water, dried, and then placed in the phosphor imaging plates. Binding density standards were prepared by serial dilution of the radioligand stock solution in the assay buffer. Readings were taken with the Fujifilm BAS-5000 (Fujifilm, Tokyo, Japan), while quantitative analysis was conducted with the Multi Gauge 3.2 image analysis software (Fujifilm, Tokyo, Japan). For blocking experiments, adjacent brain sections were co-incubated with LuAF66583 (0.1 µM or 10 µM).

Data set [8] in a line: Radiometabolite analysis in monkey plasma (gradient HPLC). The class given is in vivo, cynomolgus monkey. Conditions: baseline PET. As to the method:
The technique published earlier was utilized for the analysis of radiometabolites in NHP blood plasma. During the entire PET measurement, the percentage of the injected radioligand and its corresponding radioactive metabolites and radioactivity was measured with a reverse-phase HPLC system with UV absorbance detector (λ = 254 nm) and a radioactive detector. […] The blood samples were centrifuged at 4000 rpm for 2 min to separate plasma. From the centrifuged plasma, the resulting plasma was withdrawn and spiked with 1.4 times its volume of acetonitrile before being spun at 6000 rpm for 4 min. The supernatant, collected after the spun at 6000 rpm, was diluted with 3 mL of water, which was then injected into the HPLC system. The HPLC system was constructed with an Agilent 1200 series binary pump (Agilent, Santa Clara, CA, USA), a Rheodyne 7725i (Thermo Scientific, Waltham, MA, USA) manual injection valve, a 5.0 mL loop, and an Oyokoken S-2493Z radiation detector (Oyokoken, Tokyo, Japan) fitted with 50 mm lead shielding, which houses the detector. Chromatographic separation of the radiometabolites from the unchanged radioligand was performed via gradient elution on a semi-preparative reverse-phase ACE 5 µm C18 HL column (250 × 10 mm) using a mobile phase of acetonitrile (A) and ammonium formate 0.1 M (B). A flow rate of 5.0 mL/min was utilized according to the program 0–6.0 min: (A/B) 40:60 → 90:10 v/v; 6.0–10.0 min: (A/B) 90:10 (v/v). The radioactive peak corresponding to the parent radioligand was then integrated from the data output of the HPLC column. The area of this peak was calculated relative to the total area detected for all radioactive compounds. To evaluate the radioactivity recovery from the system, the measurement was taken from a 2 mL aliquot of the eluate taken from the HPLC column and measured against the total injected radioactivity.

The nature of data set [9]: Stability of formulated radioligand in PBS (analytical HPLC). The class given is physicochemical. Conditions: sterile PBS, for 60 min. The method, then: The radiochemical purity and stability of all three radioligands ([^11C]3, [^18F]1 and [^18F]2) were determined using analytical HPLC coupled with an XBridge analytical column (C18 5 µm, 4.6 × 150 mm particle size), a Merck-Hitachi L-7100 pump, an L-7400 UV detector, and a GM tube for radioactivity detection (VWR International). A mixture of acetonitrile (25%) and HCO2NH4 (0.1 M aq. solution) (75%) with a flow rate of 2 mL/min was used as HPLC isocratic mobile phase. The HPLC liquid flow was monitored using a UV absorbance detector (λ = 254 nm) in conjunction with a radioactive detector (BETA-flow, Beckman, Fullerton, CA, USA). All three radioligands were eluted with a retention time (tR) of 4.0–4.5 min, and the total run time of the HPLC program was 9 min. The identity of the radiolabeled compound was confirmed by co-injecting the corresponding authentic reference standard.

Data set [10] is described as follows: Plasma protein binding by ultrafiltration. Format: in vitro ADME, non-human primate (NHP). Particulars: cynomolgus monkey, pH 7.4, NHP plasma, baseline. As to the method:
The plasma protein binding of all three radioligands was determined in duplicate at the baseline condition according to a previously published method. For each blood plasma sample, 500 μL of non-human primate (NHP) blood plasma was used with 50 μL PBS (pH 7.4 containing KCl 0.2 mg, KH2PO4 0.2 mg, Na2HPO4 1.42 mg, and NaCl 8 mg per mL). The mixture included around 20 MBq of the corresponding radioligand in PBS. Samples underwent incubation at room temperature for 10 min. A small aliquot (20 µL) was taken from each mixture, and radioactivity measurements were performed using a well counter. From each mixture, 200 µL was placed into ultrafiltration tubes (Millipore Centrifree YM-30) and centrifuged at 3000 rpm for 15 minutes. The remaining filtrates were analyzed and aliquots (20 µL) were counted in the well counter described earlier. Protein-bound fractions were calculated as follows:(1) C⥂pla (filtrate) /Cpla (total) ÷CPBS (filtrate) /CPBS (total) ×100(%)
Cpla (total) represents the radioactivity concentration of incubation mixture in plasma and CPBS (total) represents the radioactivity concentration of incubation mixture in PBS. Cpla (filtrate) and CPBS (filtrate) are the radioactivity concentrations from filtrate samples.

Structures are written as SMILES. Like-named read-outs stand apart in the source and are kept apart here.

T1 sequence (Q5S007 whole entry): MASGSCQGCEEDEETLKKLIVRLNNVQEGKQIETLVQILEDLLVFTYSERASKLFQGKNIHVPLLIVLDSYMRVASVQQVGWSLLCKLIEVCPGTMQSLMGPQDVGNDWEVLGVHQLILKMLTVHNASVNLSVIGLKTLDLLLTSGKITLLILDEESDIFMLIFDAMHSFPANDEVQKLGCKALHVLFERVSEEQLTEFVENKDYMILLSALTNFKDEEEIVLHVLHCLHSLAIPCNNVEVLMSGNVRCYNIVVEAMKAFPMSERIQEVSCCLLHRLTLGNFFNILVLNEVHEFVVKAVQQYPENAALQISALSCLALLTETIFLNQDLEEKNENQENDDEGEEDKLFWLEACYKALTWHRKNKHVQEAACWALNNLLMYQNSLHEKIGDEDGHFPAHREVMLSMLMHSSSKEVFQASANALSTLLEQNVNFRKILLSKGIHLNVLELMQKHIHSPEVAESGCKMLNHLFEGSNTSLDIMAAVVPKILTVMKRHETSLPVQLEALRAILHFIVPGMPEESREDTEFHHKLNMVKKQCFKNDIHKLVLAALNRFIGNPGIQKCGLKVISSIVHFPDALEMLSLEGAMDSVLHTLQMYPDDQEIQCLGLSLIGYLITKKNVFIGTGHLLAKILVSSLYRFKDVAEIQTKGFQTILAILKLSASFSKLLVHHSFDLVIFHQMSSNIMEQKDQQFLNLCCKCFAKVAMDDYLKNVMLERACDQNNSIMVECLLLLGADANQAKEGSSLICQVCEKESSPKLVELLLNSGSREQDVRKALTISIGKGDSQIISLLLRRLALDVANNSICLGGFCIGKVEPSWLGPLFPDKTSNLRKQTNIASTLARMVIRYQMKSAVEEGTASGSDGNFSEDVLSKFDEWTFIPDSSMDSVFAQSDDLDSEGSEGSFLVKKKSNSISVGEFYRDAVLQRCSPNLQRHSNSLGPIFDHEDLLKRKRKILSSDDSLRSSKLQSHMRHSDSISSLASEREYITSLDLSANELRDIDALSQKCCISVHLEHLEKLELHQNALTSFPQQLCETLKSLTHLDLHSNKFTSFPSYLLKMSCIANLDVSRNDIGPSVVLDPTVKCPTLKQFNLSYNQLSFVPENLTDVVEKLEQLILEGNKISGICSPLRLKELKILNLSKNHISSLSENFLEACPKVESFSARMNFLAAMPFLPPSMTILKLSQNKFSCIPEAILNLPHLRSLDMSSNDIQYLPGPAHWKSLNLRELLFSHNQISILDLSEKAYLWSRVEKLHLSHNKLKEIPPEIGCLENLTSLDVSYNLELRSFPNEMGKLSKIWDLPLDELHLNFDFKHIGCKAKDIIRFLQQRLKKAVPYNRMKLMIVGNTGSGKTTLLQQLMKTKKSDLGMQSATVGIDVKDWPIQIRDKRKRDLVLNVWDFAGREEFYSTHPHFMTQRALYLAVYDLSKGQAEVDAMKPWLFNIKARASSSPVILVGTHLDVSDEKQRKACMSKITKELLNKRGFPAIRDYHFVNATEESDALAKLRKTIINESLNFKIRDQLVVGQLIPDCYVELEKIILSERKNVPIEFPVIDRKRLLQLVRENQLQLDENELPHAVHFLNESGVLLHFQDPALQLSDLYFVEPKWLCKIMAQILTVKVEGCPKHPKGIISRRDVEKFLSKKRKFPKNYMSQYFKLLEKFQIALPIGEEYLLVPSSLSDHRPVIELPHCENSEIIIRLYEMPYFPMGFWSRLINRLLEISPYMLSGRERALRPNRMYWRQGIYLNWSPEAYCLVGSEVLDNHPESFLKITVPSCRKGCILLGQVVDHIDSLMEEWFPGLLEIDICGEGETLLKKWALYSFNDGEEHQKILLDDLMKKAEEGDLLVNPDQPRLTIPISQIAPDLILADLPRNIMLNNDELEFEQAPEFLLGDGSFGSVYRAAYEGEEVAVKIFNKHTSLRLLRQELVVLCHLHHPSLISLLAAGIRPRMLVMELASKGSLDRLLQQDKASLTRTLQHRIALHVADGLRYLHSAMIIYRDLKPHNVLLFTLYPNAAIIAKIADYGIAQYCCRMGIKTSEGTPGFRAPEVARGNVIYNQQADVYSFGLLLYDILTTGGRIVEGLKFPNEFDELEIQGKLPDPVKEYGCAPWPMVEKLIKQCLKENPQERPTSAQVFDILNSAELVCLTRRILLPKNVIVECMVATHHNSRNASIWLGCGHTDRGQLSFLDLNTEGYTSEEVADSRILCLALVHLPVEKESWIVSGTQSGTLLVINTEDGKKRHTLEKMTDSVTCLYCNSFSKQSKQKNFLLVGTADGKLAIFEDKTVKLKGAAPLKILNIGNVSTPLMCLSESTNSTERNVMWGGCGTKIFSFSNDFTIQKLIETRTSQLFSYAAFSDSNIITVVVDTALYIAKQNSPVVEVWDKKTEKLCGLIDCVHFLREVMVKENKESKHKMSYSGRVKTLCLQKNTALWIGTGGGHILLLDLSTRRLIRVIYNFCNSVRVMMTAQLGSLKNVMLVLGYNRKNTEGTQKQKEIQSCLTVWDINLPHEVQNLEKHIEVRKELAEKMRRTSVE
LRRK2 wild-type (WT), sequence (Q5S007 whole entry): as above
LRRK2 G2019S, sequence (Q5S007 whole entry G2019S): as the sequence (Q5S007 whole entry) above, with G2019S counted along it

Turning to `C[C@@H]1C[C@@H](F)CN1c1c(C#N)c2c(N)ncnc2n1C` [Compound 2, 4-Amino-6-((2R,4R)-4-fluoro-2-methylpyrrolidin-1-yl)-7-methyl-7H-pyrrolo[2,3-d]pyrimidine-5-carbo nitrile], the apical-to-basolateral permeability (Papp A→B) – broadly, how fast a substance crosses the layer from the apical side – in [1] (MDCK-MDR1) was found to be 44 ×10⁻⁶ cm/s. In addition, the efflux ratio in data set [1] (MDR1-MDCK, read-out: B:A/A:B (efflux ratio)) was 0.66. Moreover, the Ki in data set [2] worked out at 0.32 nM; in data set [5], 0.37 nM. Also, the results for the fraction unbound in data set [3] and in data set [4] were 0.47 and 0.23, respectively.
For `CCNc1nc(Nc2cc(F)c(C(=O)N3CCOCC3)cc2OC)ncc1C(F)(F)F` [GEN-7915, reference compound], in [6], the “Blocking effect on [^18F]1 brain binding in vivo” value is given as “no clear blocking effects”.
Consider `Cn1cc(-c2c[nH]c3ncnc(N4CCOCC4)c23)cc1C#N` [PFE-360, reference compound], for which, in data set [6], the “Blocking effect on [^18F]1 brain binding in vivo” value was “no clear blocking effects”. Also, the “Effect on [^18F]1 binding (ARG)” value in data set [7] (human brain slice, pre-incubation with 0.1 µM) is listed as “did not significantly reduce”. Also, the “Effect on [^18F]2 binding (ARG)” value in [7] (human striatum, hippocampus, cerebellum, pretreated with 10 µM) is listed as “significantly reduced”.
For `C[C@@H]1CCCN1c1c(C#N)c2c(N)nc(Nc3cnn([11CH3])c3)nc2n1C` [[^11C]3, (R)-4-Amino-7-methyl-2-((1-[^11C]methyl-1H-pyrazol-4-yl)amino)-6-(2-methylpyrrolidin-1-yl)-7H-pyrrolo[2,3-d]pyrimidine-5-carbonitrile], the “Parent compound, share of eluted plasma radioactivity” value in data set [8] (at 5 min) is “over 90%”. Also, the “Parent compound, share of eluted plasma radioactivity” value in data set [8] (at 90 min) is on record as “around 10%”. Also, in [9], the “Radiochemical purity maintained in formulation” value is “exceeding 99%”. Moreover, in data set [6] (PET, iv, baseline), the Brain uptake is reported as > 1 %ID, the Brain washout entry is reported as “rapid washout” and the “Regional distribution of brain uptake” value is reported as “no significant regional differences”. Further, the fraction unbound at 10 min in data set [10] (read-out: Free fraction in plasma (fP)) was ~0.15. The fraction unbound at 10 min in data set [10] (read-out: Plasma protein binding (converted)) is < 0.15.
